Experimental data taken from patent publication US20090226527A1, “Particulate-stabilized injectable pharmacutical compositions of posaconazole” (priority 2004, published 2009).
Converted amounts (≈) assume the structure as drawn. Like-named read-outs stand apart in the source and are kept apart here.

Assays:
[1] = Rising Multiple Dose Study: plasma pharmacokinetics, safety, relative bioavailability of POS IV vs POS oral suspension; assay type: in vivo, human
Description: A rising, multiple dose assessment of the safety, tolerability, and pharmacokinetics of intravenous Posaconazole in healthy subjects was also conducted. The pharmacokinetic objectives of the study were two-fold: first, to determine the single-dose and multiple-dose pharmacokinetic (PK) profiles of POS IV in healthy subjects; and second, to determine the relative bioavailability of POS IV vs POS oral suspension administered under fed conditions. The formulation used in this study is that of Example 8.
Plasma obtained from blood samples was analyzed for POS using a validated LC-MS/MS method. Plasma pharmacokinetic parameters were determined. Safety was assessed by ECGs, clinical laboratory tests, vital signs, and adverse event monitoring.

[2] = test system: infectious agents (strains tested); assay: organism not typed; assay type: cell-based

CCC([C@@H](C)O)n1ncn(-c2ccc(N3CCN(c4ccc(OC[C@@H]5CO[C@@](Cn6cncn6)(c6ccc(F)cc6F)C5)cc4)CC3)cc2)c1=O (stereo partly shown) [Posaconazole]
Dose proportionality of exposure (Cmax and AUC) ([1]; 100- to 400-mg range): approximately dose proportional
Safety and tolerability ([1]; healthy subjects, 100-400 mg): safe and well tolerated
Daily dosing needed to achieve steady-state ([1]; human, in vivo): 6 to 7 days
clearance ([1]; human, in vivo, Mean systemic clearance at steady-state): 90 to 93.3 mL/min
clearance ([1]; human, in vivo, Mean systemic clearance, single-dose administration on Day 1): 137 to 192 mL/min
half-life ([1]; human, in vivo, Single-dose half-life): 26 to 29 h
half-life ([1]; human, in vivo, plasma, read-out: Mean steady-state terminal half-life): 33 to 37 h
MIC ([2]; Absidia spp, read-out: Geometric Mean MIC): 0.177 µg/mL (≈ 0.253 µM)
MIC ([2]; Absidia spp, read-out: MIC[90]): 0.031 to 0.5 µg/mL (≈ 0.0442 to 0.713 µM)
MIC ([2]; Alternaria spp, read-out: Geometric Mean MIC): 0.101 µg/mL (≈ 0.144 µM)
MIC ([2]; Alternaria spp, read-out: MIC[90]): 0.25 µg/mL (≈ 0.357 µM)
MIC ([2]; Apophysomyces spp, read-out: Geometric Mean MIC): 0.34 µg/mL (≈ 0.485 µM)
MIC ([2]; Apophysomyces spp, read-out: MIC[90]): 0.031 to 4 µg/mL (≈ 0.0442 to 5.71 µM)
MIC ([2]; Arthroderma terrestre, Trichophyton terrestre, read-out: Geometric Mean MIC): 0.125 µg/mL (≈ 0.178 µM)
MIC ([2]; Arthroderma terrestre, Trichophyton terrestre, read-out: MIC[90]): 0.125 µg/mL (≈ 0.178 µM)
MIC ([2]; Aspergillus flavus, read-out: Geometric Mean MIC): 0.079 µg/mL (≈ 0.113 µM)
MIC ([2]; Aspergillus flavus, read-out: MIC[90]): 0.25 µg/mL (≈ 0.357 µM)
MIC ([2]; Aspergillus fumigatus, read-out: Geometric Mean MIC): 0.118 µg/mL (≈ 0.168 µM)
MIC ([2]; Aspergillus fumigatus, read-out: MIC[90]): 0.5 µg/mL (≈ 0.713 µM)
MIC ([2]; Aspergillus nidulans, read-out: Geometric Mean MIC): 0.055 µg/mL (≈ 0.0785 µM)
MIC ([2]; Aspergillus nidulans, read-out: MIC[90]): 0.25 µg/mL (≈ 0.357 µM)
MIC ([2]; Aspergillus niger, read-out: Geometric Mean MIC): 0.195 µg/mL (≈ 0.278 µM)
MIC ([2]; Aspergillus niger, read-out: MIC[90]): 0.5 µg/mL (≈ 0.713 µM)
MIC ([2]; Aspergillus sydowii, read-out: Geometric Mean MIC): 0.177 µg/mL (≈ 0.253 µM)
MIC ([2]; Aspergillus sydowii, read-out: MIC[90]): 0.031 to 0.5 µg/mL (≈ 0.0442 to 0.713 µM)
MIC ([2]; Aspergillus terreus, read-out: Geometric Mean MIC): 0.052 µg/mL (≈ 0.0742 µM)
MIC ([2]; Aspergillus terreus, read-out: MIC[90]): 0.25 µg/mL (≈ 0.357 µM)
MIC ([2]; Aspergillus ustus, read-out: Geometric Mean MIC): 1.64 µg/mL (≈ 2.34 µM)
MIC ([2]; Aspergillus ustus, read-out: MIC[90]): 0.25 to 8 µg/mL (≈ 0.357 to 11.4 µM)
MIC ([2]; Bipolaris spp, read-out: Geometric Mean MIC): 0.354 µg/mL (≈ 0.505 µM)
MIC ([2]; Bipolaris spp, read-out: MIC[90]): 0.125 to 1 µg/mL (≈ 0.178 to 1.43 µM)
MIC ([2]; Bjerkandera adusta, read-out: Geometric Mean MIC): 0.25 µg/mL (≈ 0.357 µM)
MIC ([2]; Bjerkandera adusta, read-out: MIC[90]): 0.25 µg/mL (≈ 0.357 µM)
MIC ([2]; Blastomyces dermatitidis, read-out: Geometric Mean MIC): 0.053 µg/mL (≈ 0.0756 µM)
MIC ([2]; Blastomyces dermatitidis, read-out: MIC[90]): 0.125 µg/mL (≈ 0.178 µM)
MIC ([2]; Candida albicans, read-out: Geometric Mean MIC): 0.037 µg/mL (≈ 0.0528 µM)
MIC ([2]; Candida albicans, read-out: MIC[90]): 0.25 µg/mL (≈ 0.357 µM)
MIC ([2]; Candida dubliniensis, read-out: Geometric Mean MIC): 0.062 µg/mL (≈ 0.0885 µM)
MIC ([2]; Candida dubliniensis, read-out: MIC[90]): 0.25 µg/mL (≈ 0.357 µM)
MIC ([2]; Candida tropicalis, read-out: Geometric Mean MIC): 0.081 µg/mL (≈ 0.116 µM)
MIC ([2]; Candida tropicalis, read-out: MIC[90]): 0.25 µg/mL (≈ 0.357 µM)
MIC ([2]; Clavispora lusitaniae, Candida lusitaniae, read-out: Geometric Mean MIC): 0.048 µg/mL (≈ 0.0685 µM)
MIC ([2]; Clavispora lusitaniae, Candida lusitaniae, read-out: MIC[90]): 0.125 µg/mL (≈ 0.178 µM)
MIC ([2]; Coccidioides immitis, read-out: Geometric Mean MIC, Coccidioides immitis): 0.304 µg/mL (≈ 0.434 µM)
MIC ([2]; Coccidioides immitis, read-out: MIC[90], Coccidioides immitis): 1 µg/mL (≈ 1.43 µM)
MIC ([2]; Cryptococcus neoformans, read-out: Geometric Mean MIC): 0.119 µg/mL (≈ 0.17 µM)
MIC ([2]; Cryptococcus neoformans, read-out: MIC[90]): 0.25 µg/mL (≈ 0.357 µM)
MIC ([2]; Curvularia spp, read-out: Geometric Mean MIC): 0.072 µg/mL (≈ 0.103 µM)
MIC ([2]; Curvularia spp, read-out: MIC[90]): 0.031 to 0.125 µg/mL (≈ 0.0442 to 0.178 µM)
MIC ([2]; Debaryomyces hansenii, Candida famata, read-out: Geometric Mean MIC): 0.125 µg/mL (≈ 0.178 µM)
MIC ([2]; Debaryomyces hansenii, Candida famata, read-out: MIC[90]): 0.5 µg/mL (≈ 0.713 µM)
MIC ([2]; Diutina rugosa, Candida rugosa, read-out: Geometric Mean MIC): 0.039 µg/mL (≈ 0.0557 µM)
MIC ([2]; Diutina rugosa, Candida rugosa, read-out: MIC[90]): 0.5 µg/mL (≈ 0.713 µM)
MIC ([2]; Dujonia zeylanoides, Candida zeylanoides, read-out: Geometric Mean MIC): 0.031 µg/mL (≈ 0.0442 µM)
MIC ([2]; Dujonia zeylanoides, Candida zeylanoides, read-out: MIC[90]): 0.008 to 0.25 µg/mL (≈ 0.0114 to 0.357 µM)
MIC ([2]; Epidermophyton floccosum, read-out: Geometric Mean MIC): 0.029 µg/mL (≈ 0.0414 µM)
MIC ([2]; Epidermophyton floccosum, read-out: MIC[90]): 0.125 µg/mL (≈ 0.178 µM)
MIC ([2]; Exophiala dermatidis, read-out: Geometric Mean MIC): 0.125 µg/mL (≈ 0.178 µM)
MIC ([2]; Exophiala dermatidis, read-out: MIC[90]): 0.125 µg/mL (≈ 0.178 µM)
MIC ([2]; Exophiala dermatitidis, Wangiella dermatitidis, read-out: Geometric Mean MIC): 0.088 µg/mL (≈ 0.126 µM)
MIC ([2]; Exophiala dermatitidis, Wangiella dermatitidis, read-out: MIC[90]): 0.063 to 0.125 µg/mL (≈ 0.0899 to 0.178 µM)
MIC ([2]; Exophiala jeanselmei, read-out: Geometric Mean MIC): 0.287 µg/mL (≈ 0.41 µM)
MIC ([2]; Exophiala jeanselmei, read-out: MIC[90]): 0.5 µg/mL (≈ 0.713 µM)
MIC ([2]; Exophiala moniliae, read-out: Geometric Mean MIC): 0.016 µg/mL (≈ 0.0228 µM)
MIC ([2]; Exophiala moniliae, read-out: MIC[90]): 0.016 µg/mL (≈ 0.0228 µM)
MIC ([2]; Fonsecae pedrosoi, read-out: Geometric Mean MIC): 0.25 µg/mL (≈ 0.357 µM)
MIC ([2]; Fonsecae pedrosoi, read-out: MIC[90]): 0.25 µg/mL (≈ 0.357 µM)
MIC ([2]; Fusarium spp, read-out: Geometric Mean MIC): 2.32 µg/mL (≈ 3.31 µM)
MIC ([2]; Fusarium spp, read-out: MIC[90]): 16 µg/mL (≈ 22.8 µM)
MIC ([2]; Hansenula anomala, Pichia anomala, read-out: Geometric Mean MIC): 0.689 µg/mL (≈ 0.983 µM)
MIC ([2]; Hansenula anomala, Pichia anomala, read-out: MIC[90]): 1 µg/mL (≈ 1.43 µM)
MIC ([2]; Histoplasma capsulatum, read-out: Geometric Mean MIC, Histoplasma capsulatum): 0.038 µg/mL (≈ 0.0542 µM)
MIC ([2]; Histoplasma capsulatum, read-out: MIC[90], Histoplasma capsulatum): 0.25 µg/mL (≈ 0.357 µM)
MIC ([2]; Kluyveromyces marxianus, Candida kefyr, read-out: Geometric Mean MIC): 0.081 µg/mL (≈ 0.116 µM)
MIC ([2]; Kluyveromyces marxianus, Candida kefyr, read-out: MIC[90]): 0.25 µg/mL (≈ 0.357 µM)
MIC ([2]; Kluyveromyces marxianus, read-out: Geometric Mean MIC): 0.079 µg/mL (≈ 0.113 µM)
